One data set relates to HEK 293T cells. Nature of the data set: Cell viability (CCK8) after lipopeptide/placZ transfection. It is filed as cell-based. The conditions noted are these: 24 h. As to the method:
(§1) Lipopeptide (LP1 or LP2) was dissolved in MeOH in order to create a lipid film with a desired concentration. Afterwards, the organic solvent was removed under nitrogen flow, obtaining the corresponding lipid film. The film was then hydrated with 1 mL of OptiMEM Reduced Serum Medium (1X). Lipopeptide/pDNA complexes were then formed by mixing placZ or pGFP plasmid (742 ng) with the corresponding lipopeptide (LP1 or LP2) solution to obtain various concentrations (2.5–50 µg/mL), thus being able to carry out different analysis. All mixtures were allowed to complex for 30 min at rt before being used in different experiments. Lipofectamine was used as positive control; their corresponding lipoplexes were prepared with the same plasmid concentrations and the recommended reagent volume, according to the manufacturer instructions.
(§2) HEK 293T (75000 cells/well in 48 well‐plates) or iMSCs (10000 cells/well in 96 well‐plates) were allowed to attach for 24 h at 37 °C before the experiments. Then, cells were transfected with lipopeptide (LP1 or LP2)/pDNA (placZ or pGFP) complexes and incubated for 24 h at 37 °C and 5% CO2. Untransfected cells (negative control) or cells transfected with Lipofectamine (positive control) were assessed in parallel. All conditions were evaluated by quadrupled.
(§3) Viability of the cell monolayers was monitored at 24 h using the CCK8 reagent, following the supplier's instructions (Neo Biotech, France). Briefly, cells were washed with 1X PBS (pH 7.4), and then incubated with CCK8 reagent (100 µL; 1:10 dilution in DMEM) for at least 2 h at 37 °C and 5% CO2. The absorbance (Abs) signal at 450 nm was measured in a Sinergy HTX Plate reader. Cell viability was obtained with the following formula: Cellviability%=Abssample450nm/Abscontrol450nm×100

Data set [1] relates to iMSCs. The data set is described as above. In kind it is cell-based. As to conditions: 24 h. As to the method: as §1, §2, §3
Data set [2] has as its system iMSCs. Description: Cell viability after pGFP transfection (cell number vs untransfected control). As to conditions: pGFP complexes, LP1 100 µg/mL, LP2 40 µg/mL. It is filed as cell-based. The method, then:
In parallel, in situ transfection of iMSCs was evaluated by confocal microscopy (Nikon, Tokyo, Japan) based on GFP expression (Figure 7a). Transfection efficiency was quantified using ImageJ software by calculating the percentage of GFP‐positive cells relative to the total number of cells in four randomly selected fields per condition (Figure 7b). Cell viability was determined by comparing the number of cells in each sample with that of the untransfected control (Figure 7c).

Square brackets hold non-standard residues; d marks the D form. Peptide text beside a SMILES is read from it. * marks the point of attachment. Oleoyl = CCCCCCCC/C=C\CCCCCCCC(=O)*; Dap = NC[C@H](N)C(=O)O

Consider `CCCCCCCC/C=C\CCCCCCCC(=O)NC[C@H](NC(=O)CCCCCCC/C=C\CCCCCCCC)C(=O)N[C@@H](CCCCN)C(=O)N[C@@H](CCCCN)C(=O)N[C@@H](CCCCN)C(=O)O` [LP1, Dioleoyl‐DapKKK] (Oleoyl-[Dap](Oleoyl)KKK-OH), for which the Z-potential was found to be 25.2 mV. For the same compound, in the data set on HEK 293T cells, the cell viability result is reported as “above 75%”. Besides, the cell viability entry with iMSCs [1] is “above 75%”. Further, the “cytotoxicity / cell viability compared with LPF” value in the data set with iMSCs [2] is given as “higher cytotoxicity than LPF”.
For the compound `CCCCCCCC/C=C\CCCCCCCC(=O)NCCCC[C@H](NC(=O)CCCCCCC/C=C\CCCCCCCC)C(=O)N[C@@H](CCCCN)C(=O)N[C@@H](CCCCN)C(=O)N[C@@H](CCCCN)C(=O)O` [LP2, Dioleoyl‐KKKK] (Oleoyl-K(Oleoyl)KKK-OH), the Z-potential came to 25.2 mV. Further, the cell viability result with HEK 293T cells was “above 75%”. Further, the cell viability entry with iMSCs [1] is recorded as “above 75%”. For the same compound, the “cytotoxicity / cell viability compared with LPF” value in the data set on iMSCs [2] is “higher than in the LPF group”.

Values taken from PMC13410438, “Self‐Assembling Cationic Lipopeptides for the Construction of Functional Vesicular Gene‐Delivery Systems” (Small (Weinheim an Der Bergstrasse, Germany), 2026).
